Source: patent US6245817A, “NPY5 receptor antagonists and methods for using same” (Bayer Corporation, priority 1999, dated 2001)
Counter-ions that a name gives are not always drawn.

Assays:
Human NPY1 Receptor = molecular target: T1, Human NPY1 Receptor (Homo sapiens, UniProt P25929); experiment: Human NPY1 Receptor Binding Assay; details: SK-N-MC cells, [125I]PYY; read-out: hNPY1 IC50
T1 sequence (P25929 1-384): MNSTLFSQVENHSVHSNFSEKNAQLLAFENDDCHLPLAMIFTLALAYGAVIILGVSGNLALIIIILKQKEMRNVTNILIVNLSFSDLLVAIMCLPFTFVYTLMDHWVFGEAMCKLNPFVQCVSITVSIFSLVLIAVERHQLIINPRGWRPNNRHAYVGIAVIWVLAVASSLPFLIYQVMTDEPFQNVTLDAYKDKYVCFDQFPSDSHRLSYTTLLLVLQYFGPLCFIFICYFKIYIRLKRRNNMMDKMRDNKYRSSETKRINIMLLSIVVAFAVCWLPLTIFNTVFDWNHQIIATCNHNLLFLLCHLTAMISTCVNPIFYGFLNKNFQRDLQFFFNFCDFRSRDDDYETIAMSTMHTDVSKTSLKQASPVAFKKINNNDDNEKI

Human NPY4/PP1 receptor = Human NPY4/PP1 receptor (Homo sapiens, UniProt P50391); experiment: Human NPY4/PP1 Receptor Binding Assay; details: [125I]human PP; read-out: hNPY4 IC50
Chain of Human NPY4/PP1 receptor (P50391 whole entry): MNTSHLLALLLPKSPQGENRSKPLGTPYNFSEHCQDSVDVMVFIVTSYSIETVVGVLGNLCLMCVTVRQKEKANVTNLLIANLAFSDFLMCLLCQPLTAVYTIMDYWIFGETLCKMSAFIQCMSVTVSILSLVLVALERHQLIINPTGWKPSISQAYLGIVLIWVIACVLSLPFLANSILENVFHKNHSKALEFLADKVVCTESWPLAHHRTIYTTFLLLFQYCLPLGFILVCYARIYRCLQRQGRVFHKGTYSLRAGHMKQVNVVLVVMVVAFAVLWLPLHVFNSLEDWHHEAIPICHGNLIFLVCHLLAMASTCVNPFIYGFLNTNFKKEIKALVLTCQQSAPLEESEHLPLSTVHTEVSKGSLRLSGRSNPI

Human NPY5 Receptor = molecular target: T2, Human NPY5 Receptor (Homo sapiens, UniProt Q15761); experiment: Human NPY5 Receptor Binding Assay; details: [125I]PYY; read-out: hNPY5 IC50
T2 sequence (Q15761 1-445): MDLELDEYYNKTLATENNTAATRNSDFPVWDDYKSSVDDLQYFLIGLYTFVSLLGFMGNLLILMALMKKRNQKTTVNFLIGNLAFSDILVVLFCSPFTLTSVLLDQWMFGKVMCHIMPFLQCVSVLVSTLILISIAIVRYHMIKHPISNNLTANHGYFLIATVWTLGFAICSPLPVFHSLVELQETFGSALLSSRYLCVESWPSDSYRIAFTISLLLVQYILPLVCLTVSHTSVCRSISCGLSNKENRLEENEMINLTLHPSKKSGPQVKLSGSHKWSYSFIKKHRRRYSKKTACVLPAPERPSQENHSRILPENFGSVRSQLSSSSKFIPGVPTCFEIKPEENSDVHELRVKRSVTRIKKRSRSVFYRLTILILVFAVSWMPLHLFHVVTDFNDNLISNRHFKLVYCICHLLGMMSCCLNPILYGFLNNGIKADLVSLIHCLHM
Procedure: Human and Rat NPY5 Receptor Binding Assays
Binding assays are performed on GF/C Millipore 96-well plates pretreated with 0.02% polyethylenimine. The binding buffer is 25 mM Tris, 120 mM NaCl, 5 mM KCl, 1.2 mM KH2 PO4, 2.5 mM CaCl2, 1.2 mM MgSO4, 0.1% BSA and 0.5 mg/ml bacitracin, pH 7.4. Samples consist of membrane protein, 75-100 pM [125I]PYY (porcine, NEN-DuPont) and drug dilution. Nonspecific binding is defined by 1 μM PYY. After a 2 hour incubation at room temperature with constant mixing, the samples are aspirated on a vacuum manifold, and rinsed with ice-cold binding buffer. The amount of radioactivity in each well is quantitated with either gamma counting or liquid scintillation. IC50 values, which correspond to 50% inhibition of specific binding, are determined with non-linear regression analysis.

Human NPY2 receptor = molecular target: T3, Human NPY2 receptor (Homo sapiens, UniProt P49146); experiment: Human NPY2 Receptor Binding Assay; details: [125I]PYY; read-out: hPPY2 IC50
T3 sequence (P49146 1-381): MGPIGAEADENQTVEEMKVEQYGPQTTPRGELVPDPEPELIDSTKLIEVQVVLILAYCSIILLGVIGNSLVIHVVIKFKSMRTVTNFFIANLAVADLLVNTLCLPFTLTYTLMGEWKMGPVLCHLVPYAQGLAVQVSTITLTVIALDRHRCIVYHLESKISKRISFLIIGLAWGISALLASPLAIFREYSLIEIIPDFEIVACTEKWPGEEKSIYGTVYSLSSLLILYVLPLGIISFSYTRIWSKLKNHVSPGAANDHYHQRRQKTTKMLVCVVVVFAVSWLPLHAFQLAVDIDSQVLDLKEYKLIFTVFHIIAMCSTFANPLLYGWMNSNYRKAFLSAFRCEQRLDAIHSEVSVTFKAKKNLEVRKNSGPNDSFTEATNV
Procedure: Binding assays were performed on GF/C Millipore 96-well plates pretreated with 0.02% polyethylenimine. The binding buffer for rat Y2 binding is Krebs-Ringer bicarbonate (pH 7.4) containing 0.01% BSA and 0.005% bacitracin. Samples consist of membrane protein, 25 pM [125I]PYY and drug dilution. Nonspecific binding is defined by 1 μpM NPY.
After a 2 hour incubation at room temperature with constant mixing, the samples are aspirated on a vacuum manifold, and rinsed with ice-cold binding buffer. The amount of radioactivity in each well is quantitated with either gamma counting or liquid scintillation.

Rat NPY5 Receptor [1] = molecular target: T4, Rat NPY5 Receptor (Rattus norvegicus, UniProt Q63634); experiment: Rat NPY5 Receptor Binding Assay; details: [125I]PYY; read-out: rNPY5 IC50
T4 sequence (Q63634 1-445): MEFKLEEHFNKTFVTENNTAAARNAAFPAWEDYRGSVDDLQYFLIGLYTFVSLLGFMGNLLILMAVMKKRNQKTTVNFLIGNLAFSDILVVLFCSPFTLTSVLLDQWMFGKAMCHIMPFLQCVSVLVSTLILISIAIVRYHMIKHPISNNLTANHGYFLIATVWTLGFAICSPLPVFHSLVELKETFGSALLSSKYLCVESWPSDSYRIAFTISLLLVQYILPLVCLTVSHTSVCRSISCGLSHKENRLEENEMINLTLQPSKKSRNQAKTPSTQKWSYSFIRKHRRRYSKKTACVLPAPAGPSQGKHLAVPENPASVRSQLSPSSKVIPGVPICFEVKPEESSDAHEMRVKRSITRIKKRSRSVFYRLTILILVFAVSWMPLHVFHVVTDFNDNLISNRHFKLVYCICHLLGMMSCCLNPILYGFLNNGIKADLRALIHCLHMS

Rat NPY5 Receptor [2] = molecular target: T4, Rat NPY5 Receptor; experiment: Rat NYP5 Cyclase Assay (In Vitro Functional Assay); assay type: cell-based; details: 20 min, percentage of forskolin-stimulated adenylate cyclase, read-out: rNPY5 % FSAC (10 μM)
Procedure: D. Rat NYP5 Cyclase Assay (In Vitro Functional Assay)
Cells stably expressing the rat NPY5 receptor are resuspended in serum-free DMEM containing 10 mM HEPES (pH 7.4) and 1 mM isobutylmethylxanthine (IBMX). 1 μM forskolin and drug dilution are then added to the cells. After a 20 minute incubation of the samples at 37° C., the assay is stopped by placing the samples in boiling water for 3 minutes. The cAMP produced in each sample is quantitated with a radioimmunoassay kit (NEN Dupont). Data are expressed as a percentage of forskolin-stimulated adenylate cyclase.

Compound	IC50 (Human NPY1 Receptor) [µM]	IC50 (Human NPY4/PP1 receptor) [µM]	IC50 (Human NPY5 Receptor) [µM]	IC50 (Human NPY2 receptor) [µM]	IC50 (Rat NPY5 Receptor [1]) [µM]	activity at 10 µM (Rat NPY5 Receptor [2]) [%]
Cn1ccnc1SCC(=O)Nc1ccc(C2CCCCC2)cc1 [Compound 3, N-(4-Cyclohexyl-phenyl)-2-(1-methyl-1H-imidazol-2-ylsulfanyl)-acetamide Hydrochloride]	> 5	> 5	0.16	> 5	0.12	103
Cn1nnnc1SCC(=O)Nc1ccc(C2CCCCC2)cc1 [Compound 8, N-(4-Cyclohexyl-phenyl)-2-(1-methyl-1H-tetrazol-5-ylsulfanyl)-acetamide]	> 5	> 5	0.16	> 5	0.029	99
Nc1nnc(SCC(=O)Nc2ccc(C3CCCCC3)cc2)s1 [Compound 51, 2-(-Amino-[1,3,4]thiadiazol-2-ylsulfanyl)-N-4-cydohexyl-phenyl-cetamide]	–	–	0.22	> 5	–	105
Cn1c(CN2C(=O)CSc3ccc(C(F)(F)F)cc32)nnc1SCC(=O)Nc1ccccc1 [Compound 152, 2-[4-Methyl-5-(3-oxo-6-trifluornmethyl-2,3-dihydro-benzo[1,4]thiazin-4-ylmethyl)-4H-[1,2,4]triazol-3-ylsulfanyl]-N-phenyl-acetamide, reference compound]	> 5	> 5	> 10	> 5	> 10	–
Cn1c(-c2ccc(Cl)cc2)cnc1SCC(=O)Nc1ccc(Cl)cc1 [Compound 154, N-(4-Chloro-phenyl)-2-[5-(4-chloro-phenyl)-1-methyl-1H-imidazol-2-ylsulfanyl]-acetamide, reference compound]	> 5	> 5	> 10	> 5	10	–
CC(C)c1ccc(NC(=O)CSc2nccn2C)cc1 [Compound 155, N-(4-Isopropyl-phenyl)-2-(1-methyl-1H-imidazol-2-ylsulfanyl)-acetamide, reference compound]	> 5	> 5	> 10	> 5	> 10	–
CCOc1ccc(NC(=O)CSc2nccn2C)cc1 [Compound 156, N-(4-Ethoxy-phenyl)-2-(1-methyl-1H-imidazol-2-ylsulfanyl)-acetamide, reference compound]	> 5	> 5	> 10	> 5	> 10	–
O=C(CSc1ccccn1)Nc1ccc(C2CCCCC2)cc1 [Compound 182, N-(4-Cyclohexyl-phenyl)-2-(pyridin-2-ylsulfanyl)-acetamide, reference compound]	> 5	> 5	0.87	> 5	0.76	–
O=C(CSC1=NCCN1)Nc1ccc(Cl)cc1 [Compound 187, N-(4-Chloro-phenyl)-2-(4,5-dihydro-1H-imidazol-2-ylsulfanyl)-acetamide, reference compound]	> 5	> 5	> 10	> 5	> 10	–
